# Source: patent US5081131A, “Omega-((hetero)alkyl)benz(cd)-indol-2-amines” (American Cyanamid Company, priority 1988, dated 1992)
# How the values were obtained:
# [1] = target: T1, thromboxane synthetase enzyme (Rattus norvegicus, UniProt P49430); test: Thromboxane synthetase enzyme inhibition (TXB2 formation in washed platelets, RIA); type: cell-based, spontaneously hypertensive rat; conditions: 1×10^-4 Molar; SHR platelets, 10 min at 37° C.; read-out: % Inhibition (Thromboxane Synthetase Enzyme Inhibition)
# T1 construct: endogenous in cells; host or cells: washed platelets from arterial blood of male Okamoto-Aoki spontaneously hypertensive rats (animals from Taconic Farms, Germantown, N.Y.)
# T1 sequence (P49430 1-533): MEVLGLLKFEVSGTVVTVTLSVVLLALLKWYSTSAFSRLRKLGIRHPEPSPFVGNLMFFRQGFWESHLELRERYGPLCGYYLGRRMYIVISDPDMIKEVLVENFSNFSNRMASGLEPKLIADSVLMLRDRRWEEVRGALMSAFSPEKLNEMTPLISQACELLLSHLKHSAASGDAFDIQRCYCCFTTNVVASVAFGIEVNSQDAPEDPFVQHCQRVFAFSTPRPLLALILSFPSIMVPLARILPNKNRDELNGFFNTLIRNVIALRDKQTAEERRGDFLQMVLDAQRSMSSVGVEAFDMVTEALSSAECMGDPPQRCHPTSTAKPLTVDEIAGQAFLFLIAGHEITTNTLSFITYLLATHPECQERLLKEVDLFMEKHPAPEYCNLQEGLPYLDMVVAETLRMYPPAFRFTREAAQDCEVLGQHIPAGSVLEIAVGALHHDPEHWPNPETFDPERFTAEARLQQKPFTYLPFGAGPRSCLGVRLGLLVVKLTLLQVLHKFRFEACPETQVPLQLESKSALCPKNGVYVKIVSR
# [2] = tested on: thevetin-induced arrhythmia in guinea pigs; test: Thevetin (cardiac glycoside)-induced arrhythmia in guinea pigs; type: in vivo, guinea pig; conditions: IV dose 10 mg/kg; saline 22.91±0.5 minutes
# Protocol: Male guinea pigs, weighing 300-500 g each, from Summit View Farms, Belvidere, N.J., were anesthetized by intraperitoneal adminstration of urethan at 1500 mg/kg. The animals were then restrained in a supine position. Electrocardiogram leads were attached to the four limbs and Lead II of the electrocardiogram was monitored.
# The neck region was exposed and the jugular vein was cannulated. The test compounds were dissolved in saline and administered intravenously at the indicated doses, via a cannula which was then flushed with saline. Five minutes after the test compound was administered, thevetin dissolved in saline was administered by infusion through a cannula at a dose of 0.1 mg/kg/minute in a volume of 0.1 ml. The time until the P wave of the electrocardiogram disappeared was determined.
# [3] = tested on: spontaneously hypertensive rats; test: Hypotensive activity in spontaneously hypertensive rats (MABP); type: in vivo, rat (Okamoto strain); conditions: SHR, gavage, two doses of 10 mg/kg or less 24 h apart, MABP at 28 h; average baseline 160±1.5 mm Hg
# Procedure, shortened: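 Male 16-week Okamoto spontaneously hypertensive rats dosed by gavage in 2% starch at 10 mg/kg or less with 0.9% NaCl loading 25 ml/kg; identical dose without saline given 24 hours later. Mean arterial blood pressure measured 28 hours after first dose; 1 to 4 rats per compound.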
smiles,measurement,setting,value
"O=C(O)/C=C/C(=O)O.c1cc2c3c(cccc3c1)C(NCCCCCCCCCCn1ccnc1)=N2 [N-(10-(1H-imidazol-1-yl)decyl)benz(cd)indol-2-amine, fumarate]",inhibition at 100 µM,[1],65%
same,Time (Minutes) Before Induced Arrhythmia,[2],34.2 min
same,Avg. MABP in mm Hg (No. of Rats),[3],124 mm Hg
